Columns and labels:
[1] = biological target: T1, HusA Y164A (Porphyromonas gingivalis, UniProt Q7MSY3, Y164A); assay: Tryptophan fluorescence quenching assay, HusA mutant Y164A; assay type: binding
T1 sequence (Q7MSY3 24-218 Y164A): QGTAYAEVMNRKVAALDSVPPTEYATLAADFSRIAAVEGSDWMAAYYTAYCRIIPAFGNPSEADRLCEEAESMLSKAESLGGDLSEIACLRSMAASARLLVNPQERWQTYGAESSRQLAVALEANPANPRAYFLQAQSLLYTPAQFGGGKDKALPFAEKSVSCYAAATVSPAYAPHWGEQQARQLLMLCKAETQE
Procedure: (§1) The quenching of intrinsic tryptophan fluorescence of HusA upon porphyrin additions was measured using a Carey Eclipse Fluorescence Spectrophotometer (Agilent) set to a photo multiplier effect (PME) of 850. A 5-mm path length quartz cuvette was used and all spectra were acquired at room temperature. Excitation was set to 295 nm and emission was measured from 300 nm to 500 nm using excitation/emission slit widths of 5 nm. Binding assays were performed at a protein concentration of 1 μM HusA in standard buffer at a working volume of 0.5 mL. […] The fluorescence quenching of HusA by PPIX was investigated in a similar manner with the following difference: the fluorescence intensities of ten 1 μM HusA samples were measured each with increasing amounts of PPIX after a 2-h incubation period to allow equilibrium to be reached. See Supplementary Methods for correction for inner filter effect and curve fitting. […]
Correction of inner filter effect and curve fitting in tryptophan fluorescence quenching assays The concentration of NATA was chosen such that the raw fluorescence intensity was similar to the 10 uM concentrations of HusA and mutants used. […] Fluorescence intensity was scaled with respect to the starting florescence and corrected for the inner filter effect. Fluorescence at 335 nm was used to fit binding curves. […]

[2] = tested on: HusA NNNA; assay: Haemin binding to HusA mutant with all four mutations (NNNA), UV-vis and fluorescence; set-up: species or system Porphyromonas gingivalis; conditions: mutant incorporating all four mutations (L123, V124, W130, Y164)
Procedure: All absorbance spectra were recorded at room temperature using 10-mm quartz cuvettes on a Shimadzu UV-1601 or Jasco V-630 spectrophotometer. Mixtures of HusA/mutant with porphyrins were prepared by dissolving porphyrin stocks in standard buffer to a final concentration of 5–20 μM with a 1–1.5 molar ratio of protein to porphyrin, as specified in the relevant figure legends. PPIX:HusA mixtures were prepared by incremental addition of 2–4 μM HusA with a 10–15 min wait after each addition of HusA.
as §1, with “reached.” for “reached. See Supplementary Methods for correction for inner filter effect and curve fitting.”

[3] = tested on: HusA; assay: Acid-alkaline transition of UV-vis spectra, haemin bound to HusA and Y164A/F mutants; assay type: physicochemical, Porphyromonas gingivalis; conditions: haemin bound to HusA and the Y164A/F mutants
Procedure: Spectra were recorded in 0.1 M NaCl with 0.1 M of the following buffers: citrate, pH 5.0; BisTris-HCl, pH 5.5; BisTris-HCl, pH 5.75: BisTris-HCl, pH 6.0; sodium phosphate, pH 6.5; sodium phosphate, pH 7.0; sodium phosphate, pH 7.5; Tris-HCl, pH 8.0; sodium borate, pH 9.0; sodium borate/NaOH, pH 9.8; sodium carbonate, pH 10.0 (not all titration points were collected for each protein)

Compound: C=CC1=C(C)c2cc3[nH]c(cc4nc(cc5[nH]c(cc1n2)c(C)c5CCC(=O)O)C(CCC(=O)O)=C4C)c(C)c3C=C.[Fe+3] [haemin]
- reduction of haemin affinity compared to wild-type [1]: > 50%
- binding to haemin [2]: minimal binding
- pKa of acid-alkaline transition [3]: 6.1–6.5
- pKa of acid-alkaline transition ([3]; listed as haem): 6-6.5
